# Legend:
# Format in all cases: in vivo
# [1] = system: Brassica kaber; test: Experiment 4: glasshouse, pre-emergence, fresh weight after 27 days, % inhibition of growth; settings: for % inhibition of growth: Compound 99 0 g/ha
# Method: (§1) Glasshouse experiments showing the biological interaction between atrazine and Compound 99 on weed species when applied pre-emergence. […] After 27 days the fresh weight of vegetation in each pot was determined. […] E = […]00005:character} where E, X and Y are percentage inhibition of growth. In addition the ED90 values (the application rate giving 90% inhibition of growth) were calculated from the results for Compound 99 alone and with increasing rates of atrazine. The ED90 values were then used to plot an isobole for each species according to the method of […] op cit. The results of percentage inhibition of growth, the ED values calculated from them and the calculated expected values are given in Table 8.
# [2] = system: Sida spinosa; test: as above; settings: for % inhibition of growth: Compound 99 0 g/ha
# Method: as §1
# [3] = system: Digitaria horizontalis (DIGHO); test: Experiment 1: field experiment, post-emergence spray, % control 29 days after application; settings: Atrazine 1500g/ha
# Method: Duplicate 12m² plots were sprayed post-emergence with 250g or 500g/ha Compound 1 (in a composition according to Example 1 as described hereinafter) or 1500g/ha atrazine (in a commercial aqueous suspension concentrate formulation containing 500g/l w/v atrazine or a combination (as a tank mix) of the two herbicides in a volume of 300 litres/ha. The following control figures were recorded on the grass weeds Brachiaria plantaginea (BRAPL), Digitaria horizontalis (DIGHO) and Eleusine indica (ELEIN) 29 days after application.
smiles,measurement,setting,value
"CCNc1nc(Cl)nc(NC(C)C)n1 [Atrazine, 2-chloro-4-ethylamino-6-isopropylamino-1,3,5-triazine]",ED₉₀,[1]; Atrazine alone,ED₉₀(g/ha) 157.7
same,% inhibition of growth,[1]; Atrazine 16 g/ha,0%
same,% inhibition of growth,[1]; Atrazine 31 g/ha,0%
same,% inhibition of growth,[1]; Atrazine 63 g/ha,34%
same,% inhibition of growth,[1]; Atrazine 125 g/ha,70%
same,% inhibition of growth,[1]; Atrazine 250 g/ha,100%
same,% inhibition of growth,[1]; Atrazine 500 g/ha,100%
same,ED₉₀,[2]; Atrazine alone,ED₉₀(g/ha) 478.75
same,% inhibition of growth,[2]; Atrazine 16 g/ha,10%
same,% inhibition of growth,[2]; Atrazine 31 g/ha,2%
same,% inhibition of growth,[2]; Atrazine 63 g/ha,15%
same,% inhibition of growth,[2]; Atrazine 125 g/ha,23%
same,% inhibition of growth,[2]; Atrazine 250 g/ha,37%
same,% inhibition of growth,[2]; Atrazine 500 g/ha,95%
same,% control observed,[3],0%
